From ChEMBL document CHEMBL1141549, “Synthesis and antihyperglycemic activity of novel N-acyl-2-arylethylamines and N-acyl-3-coumarylamines” (2008)

Tested on: Rattus norvegicus
Assay: Antihyperglycemic activity in sucrose loaded diabetic Sprague-Dawley rat model assessed as reduction of plasma glucose levels at 100 mg/kg, po
Format: functional
Set-up: scale not given: the % may be the effect or the level left

| Compound | Activity |
| --- | --- |
| COc1cc(/C=C/C(=O)NCCc2ccc(OC)c(OC)c2)ccc1O | 30.7% |
| COc1ccc(CCNC(=O)/C=C/c2cc(OC)c(OC)c(OC)c2)cc1OC | 2.41% |
| COc1ccc(/C=C/C(=O)NCCc2ccc(OC)c(OC)c2)cc1 | 19.5% |
| COc1ccc(CCNC(=O)/C=C/c2ccccc2)cc1OC | 20.1% |
| COc1ccc(CCNC(=O)/C=C/c2ccc(F)cc2)cc1OC | 23.4% |
| COc1ccc(CCNC(=O)/C=C/c2ccc(Cl)cc2)cc1OC | 21.5% |
| COc1ccc(CCNC(=O)/C=C/c2cccc(C(F)(F)F)c2)cc1OC | 32.8% |
| O=C(/C=C/c1ccccc1)Nc1cc2ccccc2oc1=O | 22.3% |
| CC(C)(C)c1cc(C(C)(C)C)c2oc(=O)c(NC(=O)/C=C/c3cccc(C(F)(F)F)c3)cc2c1 | 21.1% |
| O=C(Nc1cc2ccccc2oc1=O)c1ccccc1 | 10.7% |
| CC(C)(C)c1cc(C(C)(C)C)c2oc(=O)c(NC(=O)c3ccccc3)cc2c1 | 23.3% |
| COc1cccc(/C=C/C(=O)NCCc2ccc(OC)c(OC)c2)c1 | 25.2% |
| CC(C)(C)c1cc(C(C)(C)C)c2oc(=O)c(NC(=O)/C=C/c3ccccc3)cc2c1 | 8.89% |
| COc1ccc(Cl)cc1C(=O)NCCc1ccc(S(=O)(=O)NC(=O)NC2CCCCC2)cc1 [GLYBURIDE] | 33.7% |
| CN(C)C(=N)NC(=N)N [METFORMIN] | 12.9% |
